# Data taken from patent US20200079757A1, “COMPOUNDS FOR THE TREATMENT OF RESPIRATORY DISEASES” (THE UNIVERSITY OF MELBOURNE, priority 2017, published 2020).
# Read-outs that look alike come from different tables or passages of the source.
# Tests used:
# Type in all cases: cell-based
# [1] = tested on: Col 1A gene expression in BEAS-2B cells; assay: TNFα and TGFβ induced Col 1A gene expression in BEAS-2B cells (RT-qPCR)
# Procedure: The primary assay for the activity of the novel CK1δ/ε inhibitors is the modulation of gene expression in the airway epithelial cell line, the BEAS-2B cells. The assay is conducted under several conditions. Generally, TGF-β or TNF-α is used to elicit fibrogenic or inflammatory genes, respectively. The agents are added at a concentration of 10 μM, or at the indicated concentrations for a period of 30 min prior to the addition of TGF-β/TNF-α which are incubated for a further 20 hours before the addition, in some experiments of the glucocorticoid, dexamethasone (Dex, 30 nM) for the final 4 hours of the experiment, prior to harvest of cellular RNA to measure by RT-qPCR the levels of mRNA of marker genes for inflammation and fibrogenesis. The inhaled corticosteroid (ICS), budesonide is also used in some experiments. Furthermore, the supernatants are harvested at the end of the incubation periods in selected experiments to measure the levels of CSF-2 or IL-8 by ELISA as described in (Tran et al. (2005) British Journal of Pharmacology, 145, 123-131).
# (§1) Prior to experimentation, BEAS-2B and A549 cells were incubated in serum-free DMEM containing 0.25% bovine serum albumin (BSA) and insulin-transferrin-selenium—containing supplement (Monomed A; CSL, Parkville, Melbourne, Australia). Where indicated, cells were treated with one of the series of synthesised compounds (0.3-10 μM) prior to exposure to 100 pM TGF-β1 (R&D Systems, Minneapolis, Minn.) or 300 pM bFGF (Promega, Madison, Wis.).
# (§2) Total RNA was extracted from cultured cells using illustra RNAspin Mini RNA Isolation Kit (GE Healthcare). RNA extracts were reverse-transcribed into cDNA using High-Capacity RNA-to-cDNA Kit (Applied Biosystems). Real-time PCR was then performed using a QuantStudio 6 Flex Real-Time PCR System using iTaq Universal SYBR green supermix and the following thermal protocol: 50° C. (2 min), 95° C. (10 min), then 40 cycles of 95° C. (15 sec), 60° C. (1 min). The threshold cycle (CT) values determined for target genes were normalized against those obtained for 18S ribosomal RNA (18S rRNA), which was included as internal control. The generation of specific PCR products was confirmed by dissociation curve analysis.
# TGFβ-activated A549 [2] = assay: TGFβ-activated A549 gene expression (modulation of mRNA level, RT-qPCR); conditions: for IC50: Homo sapiens, A549, agent 0.1-10 μM before TGF-β (100 pM) 24 hr
# Procedure: The selected potential candidate was also assayed in A549 alveolar epithelial cells, a commonly-used cell model for epithelial-mesenchymal transition (EMT) investigation. The agents were added at the indicated concentrations 30 min prior to the addition of TGF-β which was incubated for a further 24 hours. Then, the cellular RNA was harvested to measure the regulation of the EMT-associated genes and fibrogenic genes.
# A549 alveolar epithelial cells (ATCC, Manasas, Va., USA) were cultured in DMEM containing 5% (v/v) FCS, 15 mM HEPES, 0.2% (v/v) sodium bicarbonate, 2 mM L-glutamine, 1% (v/v) non-essential amino acids, 1% (v/v) sodium pyruvate, 5 IU/mL penicillin and 50 μg/mL streptomycin as previously described (S. Salem, T. Harris, J. Mok Shiueh Lian, M. Yuen Sin Li, C. R. Keenan, M. J. Schuliga, and A. G. Stewart (2012). Transforming growth factor-p impairs glucocorticoid activity in the A549 lung adenocarcinoma cell line. Br J Pharmacol. 166: 2036-2048).
# as §1, §2
# EMT is a feature of the pathogenesis of fibrosis that is relevant to epithelial tumour metastases and fibrogenesis in organs such as heart, kidney liver and lung, and is known to contribute to idiopathic pulmonary fibrosis (IPF) as well as being thought to make a contribution to the fibrosis known to occur in asthma and COPD. […] The potencies of PF670462 and SS9-010 in modulating induction of CTGF are not statistically distinguishable. […] The potency of these two agents in regulating vimentin induction by TGF-β could not be assessed, as the concentration-response relationship for PF670462 could not be fitted. However, the effects of SS9-010 were significant at 3 μM, whereas PF670462 (3 μM) had no effect.
# TGFβ-activated A549 [3] = assay: as above; conditions: for CTGF expression / PAI-1 expression / TGF-β-induced suppression of E-cadherin: A549, 0.1-10 μM prior to TGF-β (100 pM) 24 hr; for IC50: Homo sapiens, read-out: -Log IC50 ± SEM (modulation of mRNA level), N-Cadherin induction (converted)
# [4] = read-out: -Log IC50 ± SEM (modulation of mRNA level), CTGF induction (converted)
# [5] = read-out: -Log IC50 ± SEM (modulation of mRNA level), Col 1A induction (converted)
# [6] = read-out: -Log IC50 ± SEM (modulation of mRNA level), E-Cadherin repression (converted)
# [7] = read-out: -Log IC50 ± SEM (modulation of mRNA level), PAI-1 induction (converted)
# [8] = A549, agent 0.1-10 μM before TGF-β (100 pM) 24 hr
IC50 (TGFβ-activated A549 [2]; [4]) [µM],IC50 (TGFβ-activated A549 [2]; [5]) [µM],IC50 (TGFβ-activated A549 [2]; [6]) [µM],IC50 (TGFβ-activated A549 [2]; [7]) [µM],"IC50 (TGFβ-activated A549 [2]; read-out: -Log IC50 ± SEM (modulation of mRNA level), Vimentin induction (converted)) [µM]",IC50 (TGFβ-activated A549 [3]; [8]) [µM],"-Log IC50 ± SEM (modulation of mRNA level), Vimentin induction (TGFβ-activated A549 [3]; [8])",SMILES,"Col1A mRNA level, TGF-β ([1]; agent 10 μM) [fold control]","Col1A mRNA level, TNF-α (n = 2) ([1]; agent 10 μM) [fold control]","Col1A mRNA level, vehicle (no stimulus) ([1]; agent 10 μM) [fold control]",CTGF expression (TGFβ-activated A549 [3]),PAI-1 expression (TGFβ-activated A549 [3]),TGF-β-induced suppression of E-cadherin (TGFβ-activated A549 [3]),"effect on vimentin induction by TGF-β (TGFβ-activated A549 [2]; A549, agent 3 μM)","Col1A mRNA level, TGF-β ([1]; agent 3 μM) [fold control]","Col1A mRNA level, TNF-α (n = 2) ([1]; agent 3 μM) [fold control]","Col1A mRNA level, vehicle (no stimulus) ([1]; agent 3 μM)"
–,–,–,–,–,–,–,"CCCCCCCCN1CCC(n2cnc(-c3ccc(F)cc3)c2-c2ccnc(N)n2)CC1 [SS8-058, 4-(4-(4-Fluorophenyl)-1-[1-octylpiperidin-4-yl]-1H-imidazol-5-yl)pyrimidin-2-amine]",9.68 ± 1.25,1.11,0.91 ± 0.19,–,–,–,–,–,–,–
0.447,0.447,2.14,0.661,3.89,2,–,"CNc1nccc(-c2c(-c3ccc(F)cc3)ncn2C2CCCCC2)n1 [SS9-010, 4-(1-Cyclohexyl-4-(4-fluorophenyl)-1H-imidazol-5-yl)-N-methylpyrimidin-2-amine]",1.09 ± 0.10,0.37,0.30 ± 0.02,concentration-dependently inhibited,concentration-dependently inhibited,restored,–,–,–,–
1.45,3.8,8.32,3.89,–,4.47,Inactive,"Cl.Nc1nccc(-c2c(-c3ccc(F)cc3)ncn2C2CCCCC2)n1 [PF670462, 4-(1-Cyclohexyl-4-(4-fluorophenyl)-1H-imidazol-5-yl)pyrimidin-2-amine hydrochloride, reference compound]",1.53 ± 0.33,0.65,0.65 ± 0.02,concentration-dependently inhibited,concentration-dependently inhibited,restored,no effect,1.91 ± 0.32,0.52,0.47 ± .04 fold control
